Series [1] is described as follows: Acidic dissociation constant, pKa of compound at 10 uM by UV/Vis spectroscopy. The format is physicochemical.
Series [2] in a line: Basic dissociation constant, pKa of compound at 10 uM by UV/Vis spectroscopy. The format is physicochemical.
In series [3] the target is T1, High affinity cGMP-specific 3',5'-cyclic phosphodiesterase 9A (Homo sapiens, UniProt O76083). The experiment in a line: Inhibition of PDE9 (unknown origin) using [3H]-cGMP as substrate after 1 hr by scintillation counting method.
T1 sequence (O76083 whole entry): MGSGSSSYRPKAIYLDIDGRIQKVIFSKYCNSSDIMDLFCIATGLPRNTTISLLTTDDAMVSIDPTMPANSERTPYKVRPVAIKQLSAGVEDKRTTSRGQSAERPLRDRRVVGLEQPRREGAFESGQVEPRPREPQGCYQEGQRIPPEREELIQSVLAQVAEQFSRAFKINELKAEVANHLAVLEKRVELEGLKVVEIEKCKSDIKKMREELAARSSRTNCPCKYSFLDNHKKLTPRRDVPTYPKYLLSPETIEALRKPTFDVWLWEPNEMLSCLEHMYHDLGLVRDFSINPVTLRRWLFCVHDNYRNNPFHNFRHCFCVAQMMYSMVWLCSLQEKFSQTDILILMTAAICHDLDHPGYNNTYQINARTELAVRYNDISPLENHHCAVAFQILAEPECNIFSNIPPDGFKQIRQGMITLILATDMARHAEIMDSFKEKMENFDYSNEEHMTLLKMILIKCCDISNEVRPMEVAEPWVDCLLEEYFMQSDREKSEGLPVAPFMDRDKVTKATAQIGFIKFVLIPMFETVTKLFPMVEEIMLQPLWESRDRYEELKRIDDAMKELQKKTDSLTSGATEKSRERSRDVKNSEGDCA
Series [4] deals with T1, High affinity cGMP-specific 3',5'-cyclic phosphodiesterase 9A. The experiment in a line: Inhibition of PDE9 (unknown origin) at 10 uM using [3H]-cGMP as substrate after 1 hr by scintillation counting method relative to control.

Molecules are shown by their SMILES.

pKa, IC50 and inhibition data for eight molecules are collected here from ChEMBL document CHEMBL4257517, “Elucidation of fluorine's impact on pKa and in vitro Pgp-mediated efflux for a series of PDE9 inhibitors” (Medchemcomm, 2018).

Take `C[C@@H]1CN(Cc2ncccn2)C[C@H]1c1nc2c(cnn2C2CCOCC2)c(=O)[nH]1` [EDELINONTRINE]: the pKa (as a rule, the negative logarithm of the acid dissociation constant) at 10 µM in series [1] was 9.6; in series [2], 6.8. `C[C@@H]1CN(Cc2ncccn2)C[C@@]1(F)c1nc2c(cnn2C2CCOCC2)c(=O)[nH]1`: the figures for the pKa at 10 µM in series [1] and in series [2] were 8.4 and 5.6, respectively. With `Cc1ncc(CN2C[C@@H](C)[C@H](c3nc4c(cnn4C4CCOCC4)c(=O)[nH]3)C2)cn1`, the IC50 (as a rule, the concentration at which inhibition is half-maximal) in series [3] came out at 36 nM.

`Cc1cnc(CN2C[C@@H](C)[C@H](c3nc4c(cnn4C4CCOCC4)c(=O)[nH]3)C2)cn1`: the midpoint of inhibition in series [3], the IC50, lay at 59 nM. Turning to `Cc1cnc(CN2C[C@@H](C)[C@](F)(c3nc4c(cnn4C4CCOCC4)c(=O)n3C)C2)cn1`, in series [4], the inhibition (usually the drop in the measured response relative to a control, in per cent) turned out to be 22%. The molecule `Cc1cnc(CN2C[C@@H](C)[C@H](c3nc4c(cnn4C4CCOCC4)c(=O)n3C)C2)cn1` returned an inhibition in series [4] of 66%.

`C[C@@H]1CN(Cc2ccc(F)cc2)C[C@H]1c1nc2c(cnn2C2CCOCC2)c(=O)[nH]1` yielded an IC50 in series [3] of 17 nM. Consider `Cc1ncc(CN2C[C@@H](C)[C@](F)(c3nc4c(cnn4C4CCOCC4)c(=O)n3C)C2)cn1`, for which the inhibition in series [4] worked out at 14%.
